The record followed here is PMC10534891, “Evaluation of 4-Aminoquinoline Hydrazone Analogues as Potential Leads for Drug-Resistant Malaria” (Molecules, 2023).

Series [1] relates to P. falciparum K1 strain. In words: P. falciparum K1 asexual growth inhibition, 48 h, SYBR Green-based plate reader assay. The settings on record: K1 strain, trophozoite stage, 48 h incubation; for IC50: Plasmodium falciparum, read-out: Plasmodium IC50 ± SE. The series is classed as cell-based, Plasmodium falciparum. The procedure: Sixteen 4-amino-6-methoxy-quinoline hydrazone compounds (see Figure S1, Supplementary Materials for full structures), with methyl and phenyl substituents at the 2-position (R = Me, Ph) and various substituents at R’ (Table 1), were tested for their antimalarial activities. A 1% parasitised culture at the trophozoite stage was treated with the compounds for 48 h at concentrations of 0.003050–200 µM (four-fold serial dilution) against the P. falciparum K1 strain, and the growth was measured using the SYBR Green-based plate reader assay.
(§1) In total, 1% of infected RBCs at the ring or trophozoites stage was exposed to nine dilutions (four-fold serial dilution) of compounds from 50 mM stock solutions in DMSO. A total of 100 µL of culture volume was added in 96-well plates with 100 µL drug dilutions. Plates were either incubated for 48 h or 72 h at 37 °C, 5% CO2, 5% O2 in N2. Following the incubation, 150 µL of the medium was carefully removed and 150 µL of the 5× SYBR Green solution (prepared by adding 2 µL of 10,000× SYBR Green in 4 mL of PBS) was added to each well. Plates were kept in the dark for 45 min. Fluorescence intensity was measured using a microplate reader (Genius Tecan) with an excitation of 485 nm and an emission of 535 nm.
(§2) IC50 values were determined using Graph Pad Prism 5.0. Values were calculated using non-linear regression by using log-transformed drug concentration plotted against dose–response. Parasitaemia was calculated and normalised relative to the response on the controls (cultures without drug).

A short description of series [2]: MTT cytotoxicity assay, MDBK. The series is classed as cell-based, bovine. The conditions noted are these: bovine, MDBK cells; MTT, 5 days; read-out: Cell Toxicity IC50 ± SE MDBK. The procedure:
(§3) An MTT (3-(4,5-dimethylthiazol-2-yl)-2,5-diphenyl tetrazolium bromide) assay was performed to investigate the toxicity of the 4-aminoquinoline hydrazone compounds. HepG2 and MDBK cells were incubated with a two-fold serial dilution at dose ranges from 0.39 to 25 µM for 5 days.
(§4) Human hepatoma (HepG2) and the Madin–Darby bovine kidney (MDBK) cell lines were purchased from American Type Culture Collection (ATCC), USA. The MDBK cell line was cultured with Dulbecco’s Modified Eagle’s Medium (DMEM) containing 4.5 g/L (+)-D-glucose and L-glutamine, while the HepG2 cell line was cultured with RPMI 1640 containing 2 mM L-glutamine and HEPES. The culture medium was supplemented with 10% Fetal Bovine Serum (FBS) and 1% penicillin. Cells were maintained in the presence of 5% CO2 atmosphere at 37 °C. The assay was carried out on a 96-well plate, with each well containing 4 × 10^3 cells. Plates were firstly incubated for 24 h at 37 °C to ensure cell adherence. The cells were then treated with 100 µL of the drug solution prepared at various concentrations and further incubated for 5 days. After the incubation period, 50 µL of the MTT (3-(4,5-dimethylthiazol-2-yl)-2,5-diphenyltetrazolium bromide, Sigma, UK) solution was added to each well and incubated for a further 3 h. The MTT solution and medium were aspirated, 150 µL of DMSO was added to each well, and the results were read on the Ascent plate reader.

Series [3] is described as follows: MTT cytotoxicity assay, HepG2. The series is classed as cell-based, Human. The conditions noted are these: human, HepG2 cells; MTT, 5 days; read-out: Cell Toxicity IC50 ± SE HepG2. Here is the method:
as §3, §4

Series [4] has as its system P. falciparum Dd2 strain. As to the kind of experiment: P. falciparum Dd2 dose-response, 72 h, SYBR Green-based plate reader assay. It counts as cell-based. The settings on record: Plasmodium falciparum, ring stage, read-out: Dd2 IC50 ± SE. Here is the method:
(§5) The lead compounds 1 and 2 were further evaluated against the chloroquine-resistant P. falciparum Dd2 strain and chloroquine-sensitive P. falciparum 3D7. The drug activity assay was initiated on 1% infected blood at ring stages of the parasites at four-fold serial dilution from 0.00305 to 200 µM. The growth was measured after 72 h using an SYBR Green-based plate reader assay.
as §1

In series [5] the test system is P. falciparum 3D7. In words: P. falciparum 3D7 dose-response, 72 h, SYBR Green-based plate reader assay. It counts as cell-based. The conditions noted are these: Plasmodium falciparum, ring stage, read-out: 3D7 IC50 ± SE. Here is the method:
as §5, §1

The subject of series [6] is P. falciparum K1 strain. In words: P. falciparum K1 dose-response, 72 h, SYBR Green-based plate reader assay. It counts as cell-based. The settings on record: Plasmodium falciparum. The procedure:
We set up drug efficacy assays for the eight lead compounds 1–5, 12–14 (selected based on the best antimalarial activities) (Table 1), with 72 h incubation on parasitised culture. A dose–response experiment was initiated on 1% synchronous culture at the ring stages of the P. falciparum K1 strain. The selected compounds were tested at three-fold serial dilutions from 6.86 to 5000 nM. […] The selectivity indices (IC50 human cells/IC50 parasites) were calculated based on the 72 h exposure studies and are presented in Table 2.
as §1, §2

For series [7], the system named is MDBK cells. In words: MTT cytotoxicity assay, MDBK. The settings on record: MDBK IC50 (5 days) / K1 72 h IC50; IC50 = 25 μM assumed for compounds 5 and 13. The series is classed as cell-based, bovine. The procedure:
as §3, §4

Series [8] relates to HepG2 cells. In words: MTT cytotoxicity assay, HepG2. The series is classed as cell-based, Human. The settings on record: HepG2 IC50 (5 days) / K1 72 h IC50; IC50 = 25 μM assumed for compound 13. Here is the method:
as §3, §4

The test system of series [9] is P. falciparum K1 strain. In words: Stage specificity assay. The settings on record: 50–100 times IC50, 24 h exposure, wash-out, further 24 h. It counts as cell-based, Plasmodium falciparum. The procedure: The stage specificity was evaluated by conducting drug susceptibility experiments on synchronous cultures either at early rings or schizonts stages (as detailed in the Section 4). […] Cultures were exposed to drug treatment for 24 h, after which the compounds were washed out and incubated in complete RPMI medium for a further 24 h.
P. falciparum K1 was synchronised twice with 5% sorbitol at 0 h and 31 h to obtain early rings (up to 3 h old). In order to obtain late trophozoites to early schizonts, the culture was synchronised twice at 0 h and 6 h. Each synchronous stage was diluted to 1% parasitaemia. […] The dilution ranged from 1.6 to 100× fold of the previously determined IC50 of each compound in a standard 48 h assay. After a 24 h incubation period, the plates were washed 4 times resulting in about a 100-fold dilution of the free compound. The plates were further incubated for an additional 24 h at 37 °C and analysed using SYBR Green staining assays as previously described.

In series [10] the test system is P. yoelii NL. Here is the method: We next assessed the antimalarial activity of compound 2 in vivo within a P. yoelii NL murine model of blood-stage malaria. […] Two dosages of the drug were tested, 5 mg/kg and 20 mg/kg (intravenous tail vein injection), while another group of mice was administered with the drug vehicle alone (Figure 3). The lead compound 2 was injected once a day for 4 days, starting at day 11 when the infection level reached ~5% parasitaemia. Mice were monitored for a total of 20 days in order to detect signs of infection rebound or eventual toxicity.
C57BL/6 mice were purchased from Charles River, UK, and were maintained at the University of Manchester in individually ventilated cages. A total of six mice were used for this experiment and kept in the cage (two in each cage) with randomisation of mice given antimalarial drugs and vehicle control. The mice were maintained in individually ventilated cages with food and water ad libitum. Male and females were kept within separate cages during the course of the experiment. The mice generally weighed 18–20 g at the start of the experiment. Cryopreserved P. yoelii NL parasites were passed once through mice before the infection experiment. Male/female mice 6–10 weeks in age were infected with 1 × 10^4 parasitised red blood cells (pRBCs) via intravenous injection in the tail vein. Parasitaemia growth was monitored via Giemsa-stained blood smears. Three groups of mice (placebo, drug dose of 5 mg/kg or 20 mg/kg) were used for this experiment. Compound 2 was injected once a day for 4 days starting at the day the infection level reached ~5% parasitaemia. After the injection, mice were monitored for 20 days to detect eventual signs of both infection rebound and toxicity.

Setting [11] is: ring stage, 72 h incubation, read-out: Plasmodium IC50 ± SE.

As to `COc1ccc2nc(C)cc(N/N=C/c3ccc([N+](=O)[O-])cc3)c2c1` [Compound 7], in series [1], the 50% inhibitory concentration (IC50) came to 20.1 µM. In addition, the IC50 at 5 days in [2] is 6.68 ± 1.7 µM; in [3] it was 1.69 µM.
Turning to `COc1ccc2nc(C)cc(N/N=C/c3ccc(F)cc3)c2c1` [Compound 1], the IC50 in series [4] was 0.133 µM; in series [1] it was 0.612 ± 0.35 µM; in series [5], 0.183 µM; in series [6] (72 h, read-out: IC50), 0.025 µM; in series [6] (setting [11]), 0.0257 µM. For the same molecule, the “Selectivity Indices (MDBK)” value in series [7] was 147. The results for the IC50 at 5 days in series [2] and in series [3] were 3.77 ± 1.5 µM and 0.872 ± 0.79 µM, respectively. For the same molecule, in [8], the “Selectivity Indices (HepG2)” value stood at 34.
On to `COc1ccc2nc(C)cc(N/N=C/c3ccc(O)cc3)c2c1` [Compound 8], for which the half-maximal inhibitory concentration (IC50) in series [1] worked out at 22.3 µM. The values for the IC50 at 5 days in series [2] and in series [3] were 3.73 ± 1.2 µM and 1.97 ± 0.42 µM, respectively.
Turning to `COc1ccc2nc(-c3ccccc3)cc(N/N=C/c3ccc(N(C)C)cc3)c2c1` [Compound 16], the IC50 in series [1] came out at 8.06 ± 4.5 µM. Also, the IC50 at 5 days in [2] amounted to 6.24 µM; in series [3], 4.15 ± 2.4 µM.
In the case of `COc1ccc2nc(C)cc(N/N=C/c3cccc(O)c3)c2c1` [Compound 10], the IC50 in series [1] was 18.9 µM. In addition, the results for the IC50 at 5 days in series [2] and in series [3] were 9.71 ± 3.5 µM and 2.64 ± 0.2 µM, respectively.
Turning to `COc1ccc2nc(-c3ccccc3)cc(N/N=C/c3cccc(OC)c3O)c2c1` [Compound 12], the half-inhibitory concentration (IC50) in series [1] is 5.67 ± 13 µM; in series [6] (setting [11]), 0.133 ± 0.06 µM. For the same molecule, the “Selectivity Indices (MDBK)” value in [7] is reported as 50. The half-maximal inhibitory concentration (IC50) at 5 days came out at 6.6 µM in series [2] and 1.8 ± 0.78 µM in series [3]. The “Selectivity Indices (HepG2)” value in [8] was found to be 14.
For the molecule `COc1ccc2nc(C)cc(N/N=C/c3c[nH]cn3)c2c1` [Compound 6], the IC50 in series [1] worked out at 48.8 µM. The IC50 at 5 days was 11.7 ± 2.5 µM in series [2] and 7.26 ± 1 µM in series [3].
Consider `COc1ccc2nc(C)cc(N/N=C/c3ccc(C(=O)O)cc3)c2c1` [Compound 9], for which, in series [1], the “Plasmodium IC50 ± SE” value was “inactive” and the IC50 was > 200 µM. For the same molecule, the 50% inhibitory concentration (IC50) at 5 days in [2] was > 25 µM. Further, the IC50 at 5 days in [3] was > 25 µM.
Take `COc1ccc2nc(C)cc(N/N=C/c3cccc(OC)c3O)c2c1` [Compound 5]: the IC50 in series [1] turned out to be 3.82 µM; in series [6] (setting [11]) it was 0.174 ± 0.03 µM. Besides, the “Selectivity Indices (MDBK)” value in series [7] was >143. Further, the values for the half-maximal inhibitory concentration (IC50) at 5 days in series [2] and in [3] were > 25 µM and 6.73 ± 0.73 µM, respectively. Besides, the “Selectivity Indices (HepG2)” value in [8] is recorded as 39. Moreover, the “Inhibition of parasitaemia growth, schizont stage” value in [9] was “more than 25%”.
As for `COc1ccc2nc(-c3ccccc3)cc(N/N=C/c3ccc([N+](=O)[O-])cc3)c2c1` [Compound 14], the IC50 in [1] amounted to 2.2 ± 1.5 µM; in series [6] (setting [11]), 0.176 ± 0.06 µM. Besides, the IC50 at 5 days in series [2] was found to be 4.24 ± 1 µM; in series [3], 0.89 ± 0.13 µM. In [8], the “Selectivity Indices (HepG2)” value was determined as 5. For the same molecule, the “Inhibition of parasitaemia growth, schizont stage” value in [9] is “more than 25%”.
Consider `COc1ccc2nc(C)cc(N/N=C/c3cc(O)cc(O)c3)c2c1` [Compound 11], for which, in series [1], the half-maximal inhibitory concentration (IC50) is 35.9 ± 43 µM. The values for the IC50 at 5 days in [2] and in series [3] were > 25 µM and 11.1 ± 2.9 µM, respectively.
On to `COc1ccc2nc(C)cc(NN=Cc3ccccc3)c2c1` [Compound 2, 4-(2-benzylidenehydrazinyl)-6-methoxy-2-methylquinoline], for which the IC50 in [4] is 0.0244 µM; in [1] it was 2.26 ± 2.2 µM; in series [5], 0.0554 µM; in series [6] (72 h, read-out: IC50) it was 0.032 µM; in series [6] (setting [11]) it was 0.0329 ± 0.007 µM. Moreover, the “Signs of toxicity in treated mice” value in [10] (5 and 20 mg/kg i.v., monitored over three weeks) was “no detectable signs of significant toxicity”. Besides, the “Effect on parasitaemia, 20 mg/kg and 5 mg/kg” value in [10] (P. yoelii NL-treated mice) is “suppression of parasitaemia”. Moreover, the “Parasitaemia after drug treatment was suspended” value in [10] (mice, 5 mg/kg and 20 mg/kg i.v. once a day for 4 days) is “less than 4%”. Also, the “Effect on parasitaemia, 5 mg/kg” value in [10] (mice, 5 mg/kg i.v. once a day for 4 days) was “delayed activity”. Further, in series [7], the “Selectivity Indices (MDBK)” value was 101. Further, the IC50 at 5 days was found to be 3.44 ± 2.7 µM in series [2] and 1.9 ± 0.11 µM in series [3]. Also, in series [8], the “Selectivity Indices (HepG2)” value was determined as 58.
Consider `COc1ccc2nc(-c3ccccc3)cc(N/N=C/c3c[nH]cn3)c2c1` [Compound 15], for which the concentration for half-maximal inhibition (IC50) in [1] came out at 28.3 ± 29 µM. Also, the values for the half-maximal inhibitory concentration (IC50) at 5 days in [2] and in series [3] were 9.31 ± 3.5 µM and 2.21 ± 0.15 µM, respectively.
